Experimental findings from BindingDB's records for doi:10.1016/j.bmc.2016.08.020 (University of British Columbia, 2016) are described below.

pEC50: −log10 of the molar value.

The nature of this assay: Activation of p75NTR in mouse hippocampal neurons assessed as increase in cell survival after 48 hrs by MTT assay.

In the case of `CCC(C)C(N)C(=O)NCCN1CCOCC1` (stereo unspecified), the pEC50 is 7.70.
